The results in this text go back to publication PMC3440873 (Bioorganic & medicinal chemistry letters, 2011).

Data set [1] concerns MDA-MB-231 breast adenocarcinoma cells. Particulars: MDA-MB-231 cells; for TRAIL sensitizing activity: compound 4 h, then TRAIL 20 h (Fig. 4).
The target of a further data set is BIR2 domain of XIAP (Homo sapiens, UniProt P98170). The note with it: from Ki values.
Chain of BIR2 domain of XIAP (P98170 124-240 limits assumed): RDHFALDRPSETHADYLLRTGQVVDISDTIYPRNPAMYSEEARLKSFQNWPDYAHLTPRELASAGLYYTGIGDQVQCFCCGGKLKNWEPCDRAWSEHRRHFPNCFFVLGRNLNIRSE

In the case of `CN[C@@H](C)C(=O)N[C@H](C(=O)N1CCC[C@H]1C(=O)N[C@@H]1CCCc2ccccc21)C(C)C` [Compound 9f], the TRAIL sensitizing activity result in data set [1] is recorded as “strong TRAIL sensitizing activity”.

Regarding `CN[C@@H](C)C(=O)N[C@H](C(=O)N1CCC[C@H]1C(=O)NNc1ccccc1)C(C)C` [Compound 9j], the “selectivity for BIR2 vs. BIR3” value on BIR2 domain of XIAP is listed as “three-fold selective”. Besides, the TRAIL sensitizing activity entry in data set [1] is on record as “slightly less potent”.

Consider “TRAIL: apoptosis-inducing agent added to MDA-MB-231 cells at varying concentrations”, for which the “LD50 of TRAIL” value in data set [1] (TRAIL alone) was “could not be achieved”.
